According to patent publication US6670459B2, “Process for the isolation of novel oligospirostanoside” (Zandu Pharmaceutical Works Ltd., priority 2002, dated 2003):
Read-outs that look alike come from different tables or passages of the source. Marks after values point to notes of the source that are not given here.

Legend:
[1] = tested on: immunecompromised mice; assay type: in vivo
Description: (§1) 0 day: sensitization with 0.2 ml of 5×10^9 SRBC/ml i.p.
4th day: challenged with 20 μl of 5×10^9 SRBC/ml into right hind footpad for DTH reaction only.
(§2) SRBC: Sheep red blood cell.
(§3) 5th day: measurement of foot thickness/Haemagglutination antibody titre

[2] = tested on: immunecompromised mice; assay type: in vivo; remark: listed apart in the source
Description: as §1, §2, §3

[3] = mice, 250 mg/kg p.o., day 5, n=12
[4] = immunecompromised mice, 2.5 mg/kg p.o., days 0-4, day 5, n=12
[5] = immunecompromised mice, 0.0006 mg/kg p.o., days 0-4, day 5, n=12
[6] = immunecompromised mice, 0.0125 mg/kg p.o., days 0-4, day 5, n=12
[7] = oral, immunecompromised experimental animals, dose levels 0.0062-0.0125 mg Kg^-1

Cyclodextrin [reference compound]
DTH % change compared to control [1, 3]: 23* %
DTH mean ± S.E. [1, 3]: 0.45 ± 0.24
Antibody titre % change compared to control [2, 3]: 45* %
Antibody titre mean ± S.E. [2, 3]: 3.60 ± 0.33

c1ccc([C@H]2CN3CCSC3=N2)cc1 [LEV, Levamisole, reference compound]
DTH % change compared to control [1, 4]: 140*** %
DTH mean ± S.E. [1, 4]: 1.08 ± 0.14
Antibody titre % change compared to control [2, 4]: 89*** %
Antibody titre mean ± S.E. [2, 4]: 6.80 ± 0.30

C[C@H]1CC[C@@]2(OC1)O[C@H]1C[C@H]3[C@@H]4CC[C@@H]5C[C@@H](O[C@@H]6O[C@H](CO)[C@@H](O[C@@H]7O[C@@H](C)[C@H](O)[C@@H](O)[C@H]7O[C@@H]7O[C@@H](C)[C@H](O)[C@@H](O)[C@H]7O)[C@H](O)[C@H]6O)CC[C@]5(C)[C@H]4CC[C@]3(C)[C@H]1[C@@H]2C [AR-Iv, 3-0-[α-L-rhamnopyranosyl-(1→2)-α-L-rhamnopyranosyl-(1→4)-0-β-D-glucopyranosyl]-25(S)-5β-spirostan-3β-ol]
DTH % change compared to control [1, 5]: 78*** %
DTH mean ± S.E. [1, 5]: 0.80 ± 0.14
DTH % change compared to control [1, 6]: 102*** %
DTH mean ± S.E. [1, 6]: 0.91 ± 0.42
enhanced cell-mediated immune response [1, 7]: 77.77-102.22%
Antibody titre % change compared to control [2, 5]: 56** %
Antibody titre mean ± S.E. [2, 5]: 5.60 ± 0.33
Antibody titre % change compared to control [2, 6]: 78*** %
Antibody titre mean ± S.E. [2, 6]: 6.41 ± 0.16
potentiated antibody synthesis [2, 7]: 55.55-69.44%
